{"source": "patent US8592419B2", "about": "“Ceramides and apoptosis-signaling ligand” (MUSC Foundation for Research Development, priority 2004, dated 2013)", "key": {"[1]": {"tested_on": "AC mRNA", "experiment": "Reverse transcriptase PCR of AC mRNA", "format": "cell-based, human", "conditions": "10 μM, DU145 cells", "method": "Reverse Transcriptase PCR. DU145 cells were seeded in 6-well plates as described above. […] Cells were collected at indicated time points and total RNA was extracted using RNAqueous-4PCR kit (Ambion Inc.; Austin, TX), including the DNase I treatment step to remove DNA contamination. The level of transcripts of AC was assayed by two-step RT-PCR protocol (Ambion) and Rig/S15 was used as an internal control. The sequence of the primer for amplification of AC is as followed: [NT] 375 bp. All reactions were performed in a programmable thermal cycler (reverse transcription at 55° C. for 1 hour; PCR at 95° C., 3 minutes; 95° C., 30 second; 52° C., 1 minute and extension at 72° C. for 1 minute; final extension at 72° C., 10 minutes)."}, "[2]": {"tested_on": "p38 MAPK", "experiment": "Immunoblot of phosphorylated p38 MAPK", "format": "cell-based, human", "conditions": "PPC-1/pcDNA3 vector control cells", "method": "(§1) Immunoblot analysis. Cells were seeded in 60mm plates as described above and treated accordingly. Cells were lifted by gently scraping the plates, washed once with ice cold PBS and then lysed in lysis buffer (PBS, 1% Triton X-100, 10% glycerol) containing protease inhibitors pepstatin A (0.5 μg/ml), leupeptin (0.5 μg/ml), aprotinin (5 μg/ml), and PMSF (100 μg/ml) for 10 minutes on ice. Insoluble material was removed by centrifugation at 14,000 rpm for 15 minutes at 4° C. The supernatants were then supplemented with SDS at a final concentration of 2% and stored at −80° C. Protein concentrations were determined using the DC Protein Assay (BioRad Laboratories; Hercules, CA, USA) according to the manufacturer's instructions. 50 μg of protein per sample (unless otherwise indicated) were separated on NuPAGE 4-12% Bis-Tris gels (Invitrogen; Carlsbad, CA, USA) and transferred to nitrocellulose membranes (BioRad). Following transfer, membranes were blocked for 1 hour at room temperature in Tris-buffered saline (TBS) containing 0.1% Tween-20 and 5% nonfat dry milk and incubated overnight at 4° C. with primary antibody at a dilution of 1:2,000(actin), 1:1,000(cytochrome c, COX IV, Bax, Bak, p53, p38, P-p38), 1:500(P-JNK, JNK), 1:250 (AC, p73), or 1:400(LAMP-1, cathepsin B). Overnight incubations were performed in 5% milk in TBS-Tween. […]"}, "[3]": {"tested_on": "cytochrome c", "experiment": "Cytochrome c release into the cytosol (Western blot)", "format": "cell-based, human", "conditions": "5 or 10 μM, DU145 cells", "method": "as §1, with “(BioRad).” for “(BioRad). Following transfer, membranes were blocked for 1 hour at room temperature in Tris-buffered saline (TBS) containing 0.1% Tween-20 and 5% nonfat dry milk and incubated overnight at 4° C. with primary antibody at a dilution of 1:2,000(actin), 1:1,000(cytochrome c, COX IV, Bax, Bak, p53, p38, P-p38), 1:500(P-JNK, JNK), 1:250 (AC, p73), or 1:400(LAMP-1, cathepsin B). Overnight incubations were performed in 5% milk in TBS-Tween.”\nSubcellular fractionation. […] Enzyme activity per 50 μg lysate was measured using the fluorogenic cathepsin B substrate 111 (Calbiochem) according to the manufacturer's protocol."}, "[4]": {"tested_on": "Bak", "experiment": "Bak protein level and Bak foci (Western blot, confocal microscopy)", "format": "cell-based, human", "method": "Immunoblot analysis. Cells were seeded in 60mm plates as described above and treated accordingly. Cells were lifted by gently scraping the plates, washed once with ice cold PBS and then lysed in lysis buffer (PBS, 1% Triton X-100, 10% glycerol) containing protease inhibitors pepstatin A (0.5 μg/ml), leupeptin (0.5 μg/ml), aprotinin (5 μg/ml), and PMSF (100 μg/ml) for 10 minutes on ice. Insoluble material was removed by centrifugation at 14,000 rpm for 15 minutes at 4° C. The supernatants were then supplemented with SDS at a final concentration of 2% and stored at −80° C. Protein concentrations were determined using the DC Protein Assay (BioRad Laboratories; Hercules, CA, USA) according to the manufacturer's instructions. 50 μg of protein per sample (unless otherwise indicated) were separated on NuPAGE 4-12% Bis-Tris gels (Invitrogen; Carlsbad, CA, USA) and transferred to nitrocellulose membranes (BioRad). Following transfer, membranes were blocked for 1 hour at room temperature in Tris-buffered saline (TBS) containing 0.1% Tween-20 and 5% nonfat dry milk and incubated overnight at 4° C. with primary antibody at a dilution of 1:2,000(actin), 1:1,000(cytochrome c, COX IV, Bax, Bak, p53, p38, P-p38), 1:500(P-JNK, JNK), 1:250 (AC, p73), or 1:400(LAMP-1, cathepsin B). Overnight incubations were performed in 5% milk in TBS-Tween. Following overnight incubation, membranes were washed three times for 10 minutes each in TBS-Tween and incubated for 1 hour at room temperature with secondary antibody in 5% milk TBS-Tween at a dilution 1:5,000 (goat anti-mouse IgG) or 1:50,000 (goat anti-rabbit). Membranes were then washed three times more and incubated for 5 minutes at room temperature with Super Signal HRP substrate (Pierce Biotechnology Inc.; Rockford, IL, USA).\nConfocal Microscopy and Immunocytochemistry. DU145 cells were grown in 4.3 cm^2 chamber slides (Nalge Nunc) and transfected with YFPmito alone or with the dominant-negative inhibitor of Drp1(K38A) (64) using FuGENE6 (Roche; Indianapolis, IN) according to the manufacturer's instructions using 1 μg of total DNA per chamber. 24 hr after transfection and 30 min prior to treatment with 15 μM LCL204, cells were exposed to zVAD-fmk (50 μM). The slides were fixed with 4% paraformaldehyde for 20 min then permeabilized with 0.2% Triton X-100 for 15 min, followed by blocking with 4% bovine serum albumin for 45 min at RT. Cells were probed with rabbit polyclonal 2-14 anti-Bak antibody (1:5000; BioChem) for 2 hr then stained with goat anti-rabbit Alexa Fluor 543 antibodies (1:250; Molecular Probes) for 45 min. After washing, cells were imaged using the 63x objective of an LSM 510 Zeiss confocal microscope."}, "[5]": {"tested_on": "DU145 xenografts", "experiment": "DU145 prostate cancer xenografts in nude mice", "from_the_text": "One of the problems with cancer gene therapy as it is currently practiced is the issue of delivery of gene therapy vectors to every tumor cell in order to effect death of the tumor. […] The inventors devised a model of molecular cell killing in a solid tumor in which only perhaps up to 30% of the cells are infected by the virus. Since the ceramide analogs of the invention are acid CDase inhibitors which sensitize the cells to this type of cell death, an in vivo experiment in which prostate cancer xenografts, in this case DU145 cells, were grown in nude mice and treated sequentially with the acid Cdase inhibitor LCL204 followed by the AdGFPFasL virus. […] The LCL204 was administered at 0, 72 and 144 hours and the virus (1×10^9 pfu) at 10 and 82 hours."}}, "data": [{"compound": "CCCCCCCCCCCCCCN[C@H](CO)[C@H](O)c1ccc([N+](=O)[O-])cc1.Cl", "note": "[LCL204, (1R,2R) D-threo-2-N-Tetradecylamino-1-(4′-nitrophenyl)-1,3-propandiol hydrochloride]", "values": [{"measurement": "AC mRNA levels", "setting": "[1]", "value": "no decrease in AC mRNA levels"}, {"measurement": "time by which p38 MAPK phosphorylation was induced", "setting": "[2]", "value": "≤ 90", "unit": "min"}, {"measurement": "time by which cytochrome c release into the cytosol was detected", "setting": "[3]", "value": "≤ 4", "unit": "h"}, {"measurement": "Bak protein levels over time", "setting": "[4]; DU145 and PC-3 cells, 10 μM, 12 hours", "value": "accumulated Bak protein"}, {"measurement": "Bak protein levels versus concentration", "setting": "[4]; DU145 cells, 12-hour treatment", "value": "concentration-dependent up-regulation"}, {"measurement": "Bak foci on the mitochondria membrane", "setting": "[4]; DU145 cells, 20 hours, confocal microscopy", "value": "formation of Bak foci was detected"}, {"measurement": "Bak and p73 levels", "setting": "[4]; PPC-1/pcDNA3 cells, 7.5 μM, 5 hours", "value": "up-regulation of both Bak and p73 levels"}, {"measurement": "tumor burden, combination of LCL204 and AdGFPFasL virus", "setting": "[5]; LCL204 at 0, 72 and 144 hours followed by virus at 10 and 82 hours", "value": "effectively reduce the tumor burden"}, {"measurement": "tumor growth, single agent", "setting": "[5]; LCL204 systemically at 0, 72 and 144 hours, virus 1×10^9 pfu at 10 and 82 hours", "value": "some modest effects"}, {"measurement": "observable effect on the animal", "setting": "[5]; up to 75 mg/kg", "value": "no observable effect on the animal"}]}]}
